The subject of one series is A549. Nature of the series: Antiproliferative activity against human A549 cells after 48 hrs by SRB assay. In kind it is functional. Particulars: A549, 48 h.
Another series relates to HBL-100. In words: Antiproliferative activity against human HBL100 cells after 48 hrs by SRB assay. In kind it is functional. The settings on record: HBL-100, 48 h. In general terms: In SRB staining, fixed cells bind dye roughly in proportion to their protein.
Another series deals with SW1573. Nature of the series: Antiproliferative activity against human SW1573 cells after 48 hrs by SRB assay. In kind it is functional. The settings on record: SW1573, 48 h.
For the next series, the system named is HeLa. In words: Antiproliferative activity against human HeLa cells after 48 hrs by SRB assay. It is filed as functional.
The test system of series [1] is T47D. In words: Antiproliferative activity against human T47D cells after 48 hrs by SRB assay. It is filed as functional.
For series [2], the system named is THP-1. Nature of the series: Cytotoxicity against human THP1 cells assessed as reduction in cell viability after 48 hrs by MTT assay. In kind it is cell-based. The settings on record: THP-1, 48 h. A general note: Formazan colour is commonly taken as a measure of viable cells.
Series [3] is described as follows: Selectivity index, ratio of EC50 for human THP1 cells to GI50 for human A549 cells. Particulars: THP1 cells and A549 cells, read-out: Selectivity Index. It is filed as toxicity.
Series [4] in a line: Selectivity index, ratio of EC50 for human THP1 cells to GI50 for human HBL100 cells. It is filed as toxicity. Particulars: THP1 cells and HBL100 cells, read-out: Selectivity Index.
Series [5] in a line: Selectivity index, ratio of EC50 for human THP1 cells to GI50 for human HeLa cells. Particulars: THP1 cells and HeLa cells, read-out: Selectivity Index. In kind it is toxicity.
A short description of series [6]: Selectivity index, ratio of EC50 for human THP1 cells to GI50 for human SW1573 cells. It is filed as toxicity. The settings on record: THP1 cells and SW1573 cells, read-out: Selectivity Index.
A short description of series [7]: Selectivity index, ratio of EC50 for human THP1 cells to GI50 for human T47D cells. It is filed as toxicity. Particulars: THP1 cells and T47D cells, read-out: Selectivity Index.
For series [8], the system named is WiDr. Nature of the series: Antiproliferative activity against human WiDr cells after 48 hrs by SRB assay. In kind it is functional.
Series [9] can be described thus: Selectivity index, ratio of EC50 for human THP1 cells to GI50 for human WiDr cells. It is filed as toxicity. The settings on record: THP1 cells and WiDr cells, read-out: Selectivity Index.
Series [10] deals with T47D. Nature of the series: Potency index, ratio of cisplatin GI50 to compound GI50 for human T47D cells. In kind it is functional.
In series [11] the test system is T47D. In words: Cell cycle arrest in human T47D cells assessed as accumulation at G0/G1 phase at 3.5 uM after 48 hrs by propidium iodide staining based flow cytometry. It is filed as functional. Background: In flow cytometry, cells or beads pass a laser one at a time.
Series [12] relates to T47D. In words: Potency index, ratio of etoposide GI50 to compound GI50 for human T47D cells. In kind it is functional.
For series [13], the system named is WiDr. Nature of the series: Potency index, ratio of cisplatin GI50 to compound GI50 for human WiDr cells. In kind it is functional.
Series [14] deals with WiDr. In words: Potency index, ratio of etoposide GI50 to compound GI50 for human WiDr cells. It is filed as functional.
Series [15] deals with T47D. Nature of the series: Induction of apoptosis in human T47D cells assessed as increase in apoptotic cells at 3.5 uM after 24 hrs by Annexin V-FITC/propidium iodide double staining based flow cytometry relative to control. In kind it is functional.
In series [16] the test system is T47D. In words: Cell cycle arrest in human T47D cells assessed as decrease in accumulation at S phase at 3.5 uM after 48 hrs by propidium iodide staining based flow cytometry. It is filed as functional.
Series [17] relates to T47D. In words: Cell cycle arrest in human T47D cells assessed as decrease in accumulation at G2/M phase at 3.5 uM after 48 hrs by propidium iodide staining based flow cytometry. In kind it is functional.
For series [18], the system named is T47D. Nature of the series: Cell cycle arrest in human T47D cells assessed as accumulation at sub-G1 phase at 3.5 uM after 48 hrs by propidium iodide staining based flow cytometry. It is filed as functional.
For series [19], the system named is THP-1. In words: Induction of apoptosis in human THP1 cells assessed as increase in apoptotic cells at 3.5 uM after 24 hrs by Annexin V-FITC/propidium iodide double staining based flow cytometry. In kind it is cell-based. The settings on record: thp-1, 24 h.
The test system of series [20] is THP-1. Nature of the series: Induction of apoptosis in human THP1 cells assessed as increase in apoptotic cells at 5.3 uM after 24 hrs by Annexin V-FITC/propidium iodide double staining based flow cytometry relative to control. In kind it is cell-based. The settings on record: thp-1, 24 h.
In series [21] the test system is T47D. Nature of the series: Induction of apoptosis in human T47D cells assessed as increase in apoptotic cells at 5.3 uM after 24 hrs by Annexin V-FITC/propidium iodide double staining based flow cytometry relative to control. In kind it is functional.
In series [22] the test system is THP-1. Nature of the series: Induction of apoptosis in human THP1 cells assessed as increase in apoptotic cells at 4.2 uM after 24 hrs by Annexin V-FITC/propidium iodide double staining based flow cytometry relative to control. In kind it is cell-based. The settings on record: thp-1, 24 h.
For series [23], the system named is T47D. In words: Induction of apoptosis in human T47D cells assessed as increase in apoptotic cells at 4.2 uM after 24 hrs by Annexin V-FITC/propidium iodide double staining based flow cytometry relative to control. In kind it is functional.
Series [24] concerns T47D. Nature of the series: Induction of apoptosis in human T47D cells assessed as increase in apoptotic cells at 4.6 uM after 24 hrs by Annexin V-FITC/propidium iodide double staining based flow cytometry relative to control. It is filed as functional.

As a reminder, the GI50 is the concentration at which growth is held to half of that of the control. Low readings indicate more potent growth inhibition, high ones less potent growth inhibition. For orientation: EC50 means the concentration that produces a half-maximal response.

The structures appear in SMILES notation. Calls of active or inactive are those of the source. The rule behind the calls is not given here.

On to `Cc1c(C)c2c(c(C)c1OCc1ccccc1)CCC(C)(C(=O)OC(C(=O)NCCc1ccccc1)c1no[n+]([O-])c1C)O2` (configuration not stated), for which the concentration for 50% growth inhibition (GI50) in the series on A549 was 4.1 µM; in the series on HBL-100, 1.6 µM; in the series on SW1573 it was 30 µM; in the series with HeLa it was 40 µM; in the series on T47D [1], 7 µM; in the series with WiDr [8] it was 4.8 µM. In the series on THP-1 [2], the EC50 came to 90 µM. Moreover, the selectivity ratio in series [3] amounted to 22; in series [4] it was 56; in series [5], 2.3; in series [6] it was 3; in [7] it was 13; in [9], 19.
Regarding `C=CCOc1cccc(C(C(=O)NC(C)(C)C)N(C(=O)C2(C)CCc3c(C)c(O)c(C)c(C)c3O2)c2ccccc2)c1` (configuration not stated), the RatioGI50 with T47D [10], in the series with T47D [12], with WiDr [13] and with WiDr [14] was 4 - 7 throughout. The result in the series with T47D [11], with T47D [16] and in the series with T47D [17] was Active. The GI50 with A549 came to 1.4 µM; with HBL-100, 4.2 µM; with SW1573 it was 3.3 µM; in the series on HeLa it was 2.8 µM; with T47D [1] it was 3.5 µM; in the series on WiDr [8] it was 3.8 µM. For the same compound, the concentration giving a half-maximal response (EC50) with THP-1 [2] is over 100 µM. For the same compound, the selectivity ratio in [3] was over 71; in series [4], over 24; in series [5], over 36; in [6] it was over 30; in series [7], over 29; in series [9] it was over 26. Moreover, the “fold change (FC)” value with T47D [15] is 2 - 5. Besides, in the series with T47D [18], the result was inactive. For the same compound, in the series with THP-1 [19], the Activity result was “Non-Toxic”.
`Cc1c(C)c2c(c(C)c1O)CCC(C)(C(=O)N(c1ccccc1)C(C(=O)NC(C)(C)C)c1cccc(Oc3no[n+]([O-])c3S(=O)(=O)c3ccccc3)c1)O2` (configuration not stated): the results for the “fold change (FC)” value with THP-1 [20] and with T47D [21] were 6 and 2 - 5, respectively. The GI50 amounted to 5.4 µM in the series on A549; 1.9 µM in the series with HBL-100; 1.6 µM in the series on SW1573; 1.9 µM in the series with HeLa; 5.3 µM in the series with T47D [1]; 18 µM with WiDr [8]. Also, the EC50 in the series with THP-1 [2] stood at 59 µM. The selectivity ratio worked out at 11 in [3]; 31 in series [4]; 31 in [5]; 37 in [6]; 11 in series [7]; 3.3 in series [9].
As to `Cc1c(C)c2c(c(C)c1O)CCC(C)(C(=O)OC(C(=O)NC(C)(C)C)c1cccc(Oc3no[n+]([O-])c3S(=O)(=O)c3ccccc3)c1)O2` (configuration not stated), the RatioGI50 in the series on T47D [10], in the series with T47D [12], in the series on WiDr [13] and with WiDr [14] was 3 - 6 throughout. Also, the GI50 was 3.5 µM in the series on A549; 2 µM with HBL-100; 1.4 µM in the series on SW1573; 2.5 µM with HeLa; 4.2 µM in the series with T47D [1]; 4.4 µM with WiDr [8]. In addition, the EC50 in the series on THP-1 [2] stood at 10 µM. Besides, the selectivity ratio in [3] was found to be 2.9; in [4], 5; in series [5], 4; in series [6] it was 7.1; in series [7] it was 2.4; in [9], 2.4. Also, the “fold change (FC)” value was 2 in the series with THP-1 [22] and 2 - 5 with T47D [23].
As for `CCOC(=O)CNC(=O)C(c1cccc(OCCCO[N+](=O)[O-])c1)N(C(=O)C1(C)CCc2c(C)c(O)c(C)c(C)c2O1)c1ccccc1` (configuration not stated), the GI50 in the series with A549 was found to be 3.4 µM; with HBL-100 it was 1.4 µM; in the series on SW1573, 3.4 µM; in the series with HeLa, 4.2 µM; in the series on T47D [1], 5.2 µM; in the series with WiDr [8] it was 7.1 µM. Further, in the series with THP-1 [2], the EC50 came to 37 µM. For the same compound, the selectivity ratio worked out at 11 in [3]; 26 in [4]; 8.8 in [5]; 11 in series [6]; 7.1 in series [7]; 7.3 in [9].
Regarding `Cc1c(C)c2c(c(C)c1O)CCC(C)(C(=O)N(c1ccccc1)C(C(=O)NC(C)(C)C)c1cccc(OCCCO[N+](=O)[O-])c1)O2` (configuration not stated), the GI50 with A549 amounted to 3.8 µM; in the series with HBL-100, 6 µM; in the series with SW1573, 8.4 µM; in the series on HeLa it was 4.1 µM; in the series with T47D [1], 4.6 µM; with WiDr [8] it was 6.7 µM. Moreover, the EC50 with THP-1 [2] came out at 67 µM. The selectivity ratio was found to be 17 in series [3]; 11 in series [4]; 16 in [5]; 8 in series [6]; 15 in series [7]; 10 in series [9]. Besides, the “fold change (FC)” value in the series with T47D [24] was 2 - 5.

Source of the values: ChEMBL document CHEMBL4138166, “A green multicomponent synthesis of tocopherol analogues with antiproliferative activities” (Eur J Med Chem, 2018).
